Biological target: 5-hydroxytryptamine receptor 5A (Mus musculus, UniProt P30966)
Sequence (P30966 whole entry): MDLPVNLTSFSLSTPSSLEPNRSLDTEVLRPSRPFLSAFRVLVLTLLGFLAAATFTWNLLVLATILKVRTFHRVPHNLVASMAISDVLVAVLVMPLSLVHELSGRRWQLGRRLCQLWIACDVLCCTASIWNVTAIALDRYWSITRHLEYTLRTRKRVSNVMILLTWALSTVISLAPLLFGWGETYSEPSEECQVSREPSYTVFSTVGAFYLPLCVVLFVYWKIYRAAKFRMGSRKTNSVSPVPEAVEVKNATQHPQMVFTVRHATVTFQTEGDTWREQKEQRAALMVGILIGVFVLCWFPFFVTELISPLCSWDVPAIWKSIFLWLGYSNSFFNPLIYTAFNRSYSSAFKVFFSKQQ

Compound	Ki
CNS(=O)(=O)Cc1ccc2[nH]cc(CCN(C)C)c2c1 [Sumax]	> 10000 nM
CCN(CC)C(=O)[C@@H]1C=C2c3cccc4[nH]c(Br)c(c34)C[C@H]2N(C)C1 [LSD,2-Bromo]	1.99 nM
NCC(O)c1ccc(O)c(O)c1 (stereo not drawn) [Noradrenaline,(+)]	> 10000 nM
NCCc1ccc(O)c(O)c1	> 10000 nM
FC(F)(F)c1cccc(N2CCNCC2)c1 [TFMPP]	2510 nM
COc1ccc2[nH]cc(C3=CCNCC3)c2c1 [5-Methoxy-3-(1,2,3,6-tetrahydro-pyridin-4-yl)-1H-indole(RU-24969)]	316 nM
CCCN(CCC)C1CCc2cccc(O)c2C1 (centres undefined)	1260 nM
CN(C)CCc1c[nH]c2ccc(O)cc12 [3-[2-(dimethylamino)ethyl]indol-5-ol]	1000 nM
CC(C)NCC(O)COc1cccc2[nH]ccc12 (centres undefined) [LB-46]	> 10000 nM
CC[C@@H](CO)NC(=O)[C@@H]1C=C2c3cccc4c3c(cn4C)C[C@H]2N(C)C1	63.1 nM
O=C(CCCN1CCC2(CC1)C(=O)NCN2c1ccccc1)c1ccc(F)cc1 [8-[4-(4-fluorophenyl)-4-oxidanylidene-butyl]-1-phenyl-1,3,8-triazaspiro[4.5]decan-4-one]	2510 nM
CN1C[C@H](C(=O)N[C@]2(C)O[C@@]3(O)[C@@H]4CCCN4C(=O)[C@H](Cc4ccccc4)N3C2=O)C=C2c3cccc4[nH]cc(c34)C[C@H]21 [12'-hydroxy-2'-methyl-5'alpha-(phenylmethyl)ergotaman-3',6',18-trione]	3.98 nM
CSc1ccc2c(c1)C(N1CCN(C)CC1)Cc1ccccc1S2 (centres undefined) [methanesulfonic acid;1-methyl-4-(3-methylsulfanyl-5,6-dihydrobenzo[b][1]benzothiepin-5-yl)piperazine]	100 nM
O=C(c1ccc(F)cc1)C1CCN(CCn2c(=O)[nH]c3ccccc3c2=O)CC1 [3-(2-{4-[(4-fluorophenyl)carbonyl]piperidin-1-yl}ethyl)-1,2,3,4-tetrahydroquinazoline-2,4-dione]	> 10000 nM

— BindingDB's records for PubMed 1464308 (Cnrs, 1992)
